Blank lines part the entries; values can stand above or below the compound they belong to. Activity calls are given as the source filed them. No cut-off for these calls is given here.
Tests used:
[1] = target: T1, Tyrosine-protein phosphatase non-receptor type 1 (Homo sapiens) (UniProt P18031); experiment: Inhibition of polyhis-tagged recombinant human PTP1B (1 to 303 residues) extracted from Escherichia coli BL21 (DE3) pLysS using p-nitro-phenyl phosphate as substrate at 10 uM preincubated for 15 mins followed by substrate addition and measured after 15 mins by absorbance based analysis relative to control; settings: time 30.0 min
T1 sequence (whole entry): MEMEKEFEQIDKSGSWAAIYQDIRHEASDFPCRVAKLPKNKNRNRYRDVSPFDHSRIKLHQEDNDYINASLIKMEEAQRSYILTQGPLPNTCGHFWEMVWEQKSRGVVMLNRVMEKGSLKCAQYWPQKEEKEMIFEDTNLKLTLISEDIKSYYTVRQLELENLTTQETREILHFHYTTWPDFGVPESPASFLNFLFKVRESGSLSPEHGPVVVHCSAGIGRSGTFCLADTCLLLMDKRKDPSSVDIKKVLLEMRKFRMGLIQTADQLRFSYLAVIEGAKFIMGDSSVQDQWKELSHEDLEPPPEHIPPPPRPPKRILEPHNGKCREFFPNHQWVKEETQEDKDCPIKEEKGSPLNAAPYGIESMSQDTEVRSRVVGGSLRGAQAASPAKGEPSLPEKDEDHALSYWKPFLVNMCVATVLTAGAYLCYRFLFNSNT

[2] = target: T2, Aldo-keto reductase family 1 member A1 (Rattus norvegicus, UniProt P51635); experiment: Inhibition of male Wistar rat kidney ALR1 using D-glucuronate as substrate assessed as NADPH consumption by spectrophotometric analysis
T2 sequence (P51635 whole entry): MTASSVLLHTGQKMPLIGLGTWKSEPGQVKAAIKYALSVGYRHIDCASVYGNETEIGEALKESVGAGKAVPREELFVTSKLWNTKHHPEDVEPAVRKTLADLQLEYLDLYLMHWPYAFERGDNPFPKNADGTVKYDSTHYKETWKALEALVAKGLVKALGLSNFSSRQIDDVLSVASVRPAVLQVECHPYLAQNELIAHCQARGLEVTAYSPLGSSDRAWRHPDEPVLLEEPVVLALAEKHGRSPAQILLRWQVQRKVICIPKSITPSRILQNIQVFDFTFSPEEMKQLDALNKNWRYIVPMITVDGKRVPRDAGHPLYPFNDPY

[3] = target: Aldo-keto reductase family 1 member B1 (Rattus norvegicus) (UniProt P07943); experiment: Inhibition of male Wistar rat lens ALR2 using D,L-glyceraldehyde as substrate assessed as NADPH consumption at 1 uM by spectrophotometric analysis relative to control
Homo sapiens = species on record: Homo sapiens; experiment: Selectivity index, ratio of IC50 for polyHis-tagged recombinant human TCPTP (1 to 415 residues) extracted from Escherichia coli BL21 (DE3) pLysS using p-nitro-phenyl phosphate as substrate to IC50 for polyhis-tagged recombinant human PTP1B (1 to 303 residues) extracted from Escherichia coli BL21 (DE3) pLysS using p-nitro-phenyl phosphate as substrate
[4] = target: Aldo-keto reductase family 1 member B1 (Rattus norvegicus) (UniProt P07943); experiment: Inhibition of male Wistar rat lens ALR2 using D,L-glyceraldehyde as substrate assessed as NADPH consumption at 10 uM by spectrophotometric analysis relative to control
[5] = target: T1, Tyrosine-protein phosphatase non-receptor type 1 (Homo sapiens); experiment: Inhibition of polyhis-tagged recombinant human PTP1B (1 to 303 residues) extracted from Escherichia coli BL21 (DE3) pLysS using p-nitro-phenyl phosphate as substrate at 50 uM preincubated for 15 mins followed by substrate addition and measured after 15 mins by absorbance based analysis relative to control; settings: time 30.0 min
Rattus norvegicus [6] = species on record: Rattus norvegicus; experiment: Selectivity index, ratio of IC50 for male Wistar rat kidney ALR1 using D-glucuronate as substrate to IC50 for male Wistar rat lens ALR2 using D,L-glyceraldehyde as substrate
[7] = target: T3, Tyrosine-protein phosphatase non-receptor type 2 (Homo sapiens, UniProt P17706); experiment: Inhibition of polyHis-tagged recombinant human TCPTP (1 to 415 residues) extracted from Escherichia coli BL21 (DE3) pLysS using p-nitro-phenyl phosphate as substrate assessed as substrate hydrolysis by measuring p-nitrophenolate release by absorbance based analysis
T3 sequence (P17706 whole entry): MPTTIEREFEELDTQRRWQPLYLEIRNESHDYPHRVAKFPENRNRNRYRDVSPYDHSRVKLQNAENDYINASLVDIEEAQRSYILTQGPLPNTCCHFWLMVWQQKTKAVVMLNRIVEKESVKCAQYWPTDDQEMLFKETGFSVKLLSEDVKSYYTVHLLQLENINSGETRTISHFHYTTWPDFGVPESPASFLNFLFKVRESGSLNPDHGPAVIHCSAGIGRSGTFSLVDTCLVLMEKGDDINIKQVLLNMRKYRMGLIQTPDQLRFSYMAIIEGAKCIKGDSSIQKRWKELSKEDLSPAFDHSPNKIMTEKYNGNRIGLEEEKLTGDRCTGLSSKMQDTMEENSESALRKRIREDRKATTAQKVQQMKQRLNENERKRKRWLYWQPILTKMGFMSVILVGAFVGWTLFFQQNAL

[8] = target: T1, Tyrosine-protein phosphatase non-receptor type 1 (Homo sapiens); experiment: Irreversible inhibition of polyhis-tagged recombinant human PTP1B (1 to 303 residues) extracted from Escherichia coli BL21 (DE3) pLysS at 200 uM incubated for 1 hrs and measured after dilution
[9] = target: Aldo-keto reductase family 1 member B1 (Rattus norvegicus, UniProt P07943); experiment: Inhibition of male Wistar rat lens ALR2 using D,L-glyceraldehyde as substrate assessed as NADPH consumption by spectrophotometric analysis
[10] = target: T4, Tyrosine-protein phosphatase non-receptor type 1 (Homo sapiens, UniProt P18031); experiment: Inhibition of polyhis-tagged recombinant human PTP1B (1 to 303 residues) extracted from Escherichia coli BL21 (DE3) pLysS using p-nitro-phenyl phosphate as substrate assessed as substrate hydrolysis by measuring p-nitrophenolate release by absorbance based analysis
T4 sequence (P18031 whole entry): T1 sequence (whole entry)

[11] = target: T2, Aldo-keto reductase family 1 member A1; experiment: Inhibition of rat kidney ALR1; assay type: tissue-based
Rattus norvegicus [12] = species on record: Rattus norvegicus; experiment: Selectivity index, ratio of IC50 for rat kidney ALR1 to IC50 for rat lens ALR2
[13] = Selectivity index, ratio of IC50 for TCPTP (unknown origin) extracted from Escherichia coli BL21 TB1 using p-nitro-phenyl phosphate as substrate to IC50 for human PTP1B extracted from Escherichia coli BL21 TB1 using p-nitro-phenyl phosphate as substrate
C2C12 [14] = experiment: Enhancement of […] glucose uptake in mouse C2C12 cells assessed as increase in 2-NDBG uptake at 25 to 50 uM preincubated for 30 mins followed by insulin addition and measure after 30 mins by flow cytometric analysis; assay type: functional, cell-based; settings: dose 25-50 µM, time 60.0 min
C2C12 [15] = experiment: Effect on couple efficiency in mouse C2C12 cells assessed as decrease in coupling efficiency at 25 uM incubated for 24 hrs by Seahorse XF cell mito stress analysis; assay type: functional, cell-based
C2C12 [16] = experiment: Induction of mitochondrial uncoupling activity in mouse C2C12 cells assessed as decrease in sparse capacity at 25 uM incubated for 30 mins by Seahorse XF cell mito stress analysis; assay type: functional, cell-based
C2C12 [17] = experiment: Induction of glucose uptake in mouse C2C12 cells assessed as decrease in glucose concentration in cell culture medium at 25 to 50 uM incubated for 24 hrs by BGSTAR glucometric analysis; assay type: functional, cell-based; settings: dose 25-50 µM
C2C12 [18] = experiment: Reduction in basal respiration rate in mouse C2C12 cells assessed as decrease in coupling efficiency at 25 uM incubated for 24 hrs by Seahorse XF cell mito stress analysis; assay type: functional, cell-based
C2C12 [19] = experiment: Cytotoxicity against mouse C2C12 cells assessed as reduction in cell viability at 1 uM measured after 48 hrs by MTT assay; assay type: toxicity, cell-based; settings: c2c12, 48 h
C2C12 [20] = experiment: Effect on basal respiration rate in mouse C2C12 cells assessed as decrease in coupling efficiency at 25 uM incubated for 30 mins by Seahorse XF cell mito stress analysis; assay type: functional, cell-based
C2C12 [21] = experiment: Reduction in oxygen-dependent ATP production in mouse C2C12 cells assessed as decrease in coupling efficiency at 25 uM incubated for 24 hrs by Seahorse XF cell mito stress analysis; assay type: functional, cell-based
C2C12 [22] = experiment: Induction of Akt phosphorylation in mouse C2C12 cells at 25 uM incubated for 30 mins by Western blot analysis; assay type: cell-based
C2C12 [23] = experiment: Reduction in proton leak in mouse C2C12 cells assessed as decrease in coupling efficiency at 25 uM incubated for 24 hrs by Seahorse XF cell mito stress analysis; assay type: functional, cell-based
C2C12 [24] = experiment: Effect on maximal respiration rate in mouse C2C12 cells assessed as decrease in coupling efficiency at 25 uM incubated for 30 mins by Seahorse XF cell mito stress analysis; assay type: functional, cell-based
C2C12 [25] = experiment: Effect on sparse capacity in mouse C2C12 cells assessed as decrease in coupling efficiency at 25 uM incubated for 24 hrs by Seahorse XF cell mito stress analysis; assay type: functional, cell-based
C2C12 [26] = experiment: Reduction of mitochondrial mass in mouse C2C12 cells at 25 uM incubated for 72 hrs by Mitotracker green based flow cytometric analysis; assay type: functional, cell-based
C2C12 [27] = experiment: Reduction in maximal respiration rate in mouse C2C12 cells assessed as decrease in coupling efficiency at 25 uM incubated for 24 hrs by Seahorse XF cell mito stress analysis; assay type: functional, cell-based
Mitochondrial membrane = experiment: Induction of mitochondrial membrane potential loss in mouse C2C12 cells at 25 uM incubated for 0.5 to 50 hrs by TMRE probe based flow cytometric analysis; settings: time 0.5-50 hrs
C2C12 [28] = experiment: Effect on mitochondrial mass in mouse C2C12 cells at 25 uM incubated for 72 hrs by Mitotracker green based flow cytometric analysis; assay type: functional, cell-based
C2C12 [29] = experiment: Induction of mitochondrial uncoupling activity in mouse C2C12 cells assessed as decrease in coupling efficiency at 25 uM incubated for 30 mins by Seahorse XF cell mito stress analysis; assay type: functional, cell-based
C2C12 [30] = experiment: Induction of Akt phosphorylation in mouse C2C12 cells at 25 uM incubated for 30 mins in presence of insulin by Western blot analysis; assay type: cell-based
C2C12 [31] = experiment: Induction of glucose uptake in mouse C2C12 cells assessed as increase in 2-NDBG uptake at 25 to 50 uM incubated for 30 mins by flow cytometric analysis; assay type: functional, cell-based; settings: dose 25-50 µM
C2C12 [32] = experiment: Induction of mitochondrial uncoupling activity in mouse C2C12 cells assessed as decrease in oxygen-dependent ATP production at 25 uM incubated for 30 mins by Seahorse XF cell mito stress analysis; assay type: functional, cell-based
C2C12 [33] = experiment: Induction of mitochondrial uncoupling activity in mouse C2C12 cells assessed as increase in proton leak at 25 uM incubated for 30 mins by Seahorse XF cell mito stress analysis; assay type: functional, cell-based
C2C12 [34] = experiment: Effect on mitochondrial mass in mouse C2C12 cells at 25 to 50 uM incubated for 72 hrs by Mitotracker green based flow cytometric analysis; assay type: functional, cell-based; settings: dose 25-50 µM

SMILES: O=C(O)CN1C(=O)S/C(=C\c2cn(Cc3ccccc3)c3ccccc23)C1=O
inhibition [1]: 18.3% | IC50 [2]: 7.54 µM | inhibition [3]: > 70% | Ratio IC50 (Homo sapiens): 1.1 | inhibition [4]: > 92% | inhibition [5]: 49.6% | Ratio IC50 (Rattus norvegicus [6]): 290 | IC50 [7]: 47.1 µM | inhibition [8]: Active | IC50 [9]: 0.026 µM | IC50 [10]: 42.8 µM

SMILES: CC(/C=C1\SC(=S)N(CC(=O)O)C1=O)=C\c1ccccc1
IC50 [2]: 2.37 µM | IC50 [11]: 2.14 µM

SMILES: O=C(O)CN1C(=O)S/C(=C\c2cn(Cc3ccc(Br)cc3F)c3ccccc23)C1=O
inhibition [1]: 0% | IC50 [2]: > 15 µM | inhibition [3]: > 70% | inhibition [4]: > 92% | inhibition [5]: 4.4% | Ratio IC50 (Rattus norvegicus [6]): > 80 | IC50 [9]: 0.187 µM | IC50 [10]: > 50 µM

SMILES: CN(C)C(=N)NC(=N)N
Activity (C2C12 [34]): inactive

Further lines, with some results ahead:

inhibition [1]: 0% | IC50 [2]: 14.2 µM | inhibition [3]: > 70% | inhibition [4]: > 92% | inhibition [5]: 90.8% | Ratio IC50 (Rattus norvegicus [6]): 787 | IC50 [9]: 0.018 µM
SMILES: O=C(O)CN1C(=O)S/C(=C\c2cn(Cc3ccc(F)cc3)c3ccccc23)C1=O

Ratio IC50 (Rattus norvegicus [12]): 16
SMILES: Cc1ccc(CN2C(=O)C(C(C#N)C(=O)O)c3cc(F)ccc32)cc1 (stereo not given)

inhibition [1]: 34.5% | inhibition [5]: 95.2% | Ratio IC50 [13]: 1.3
SMILES: O=c1c(O)c(-c2ccc(O)cc2O)oc2cc(O)cc(O)c12

inhibition [1]: 28.1% | IC50 [2]: > 15 µM | inhibition [3]: > 70% | Ratio IC50 (Homo sapiens): 1.8 | inhibition [4]: > 92% | inhibition [5]: 62.8% | Ratio IC50 (Rattus norvegicus [6]): > 52 | IC50 [7]: 37.8 µM | inhibition [8]: Active | IC50 [9]: 0.289 µM | IC50 [10]: 21.3 µM
SMILES: O=C(O)CN1C(=O)S/C(=C\c2cn(Cc3ccc(Cl)cc3Cl)c3ccccc23)C1=O
Activity (C2C12 [14]): inactive | Activity (C2C12 [15]): inactive | Activity (C2C12 [16]): Active | Activity (C2C12 [17]): Active | Activity (C2C12 [18]): Active | Activity (C2C12 [19]): Toxic | Activity (C2C12 [20]): inactive | Activity (C2C12 [21]): Active | Activity (C2C12 [22]): Not active; Compound Acted Neither As An Insulin Mimetic Nor A Sensitizing Agent | Activity (C2C12 [23]): Active | Activity (C2C12 [24]): inactive | Activity (C2C12 [25]): inactive | Activity (C2C12 [26]): Active | Activity (C2C12 [27]): Active | Activity (Mitochondrial membrane): Active; Compound Targets Mitochondria As An Uncoupling Agent | Activity (C2C12 [28]): inactive | Activity (C2C12 [29]): Active | Activity (C2C12 [30]): Not active; Compound Acted Neither As An Insulin Mimetic Nor A Sensitizing Agent | Activity (C2C12 [31]): Active | Activity (C2C12 [32]): Active | Activity (C2C12 [33]): Active
